# Reference: PMC7461568, “Novel Cyclic Lipopeptide Antibiotics: Effects of Acyl Chain Length and Position” (International Journal of Molecular Sciences, 2020)
# Where two headings read alike, the source gives them in different places. Where a SMILES comes first, the peptide text is derived from it. Bridges are numbered along the chain shown (N, C = ends). [ ]: non-standard residue; d: D form. The star is where a group is joined. Bip = N[C@@H](Cc1ccc(-c2ccccc2)cc1)C(=O)O; 2Nal = N[C@@H](Cc1ccc2ccccc2c1)C(=O)O; X1 = CC[C@H](C)CCCCC(=O)*; Dab = NCC[C@H](N)C(=O)O; Hexanoyl = CCCCCC(=O)*; AEEA = NCCOCCOCC(=O)O; Butyryl = CCCC(=O)*
# Key:
# E. coli ATCC 25922 = format: cell-based, Escherichia coli; conditions: MHB-II, inoculum 5 × 10^5 CFU/mL, 37 °C, 18–24 h, visual read-out, triplicate
# Description: (§1) In the original report on S3(B), MIC experiments were carried out by using non-cation-adjusted MHB-I media. To this, bovine serum albumin (BSA) and acetic acid were added. The rationale for choosing a medium without cations is that cation-adjusted media (MHB-II) in some cases causes substantial inhibition of the activity of cationic peptides. Furthermore, some peptides are at risk of precipitation when diluted into MHB medium, which can be avoided via the addition of BSA and acetic acid. However, the use of MHB-II is favorable to imitate the in vivo conditions as much as possible. Both media were tested with and without the addition of BSA and acetic acid by trial and error. The use of pure MHB-II was compatible with S3(B) and its fatty acid analogues, and therefore was chosen for the MIC determinations. Noticeably, MHB-I with BSA and acetic acid led to precipitation of lipopeptides in the present work.
# (§2) Cation-adjusted Mueller-Hinton broth (MHB-II) media (BD BBLTM Beef extract powder, BD BactoTMCasamino acids, and DIFCO soluble starch was from Becton, Dickinson and Company©, Franklin Lakes, NJ, USA). MHB media supplemented with 0.2% BSA was from Sigma Aldrich (St. Louis, MO, USA) and 0.01% acetic acid from VWR®. The 96 well plate cell-culture cluster, round-bottom, polypropylene plates, and V-shaped 96 well polypropylene plates were purchased from Corning® Inc., Costar®, Corning, NY, USA. Microseal® film was obtained from Bio-Rad Laboratories, Inc., Hercules, CA, USA. A VersaMaxTM Tunable Microplate Reader (Molecular Devices LLC, Sunnyvale, CA, USA) was used and the data were evaluated on a Softmax® Pro (Molecular Devices LLC).
# (§3) The MIC experiments were performed according to a protocol adapted from Wiegand et al., with minor modifications. The MICs were determined in triplicate. The peptides were dissolved in Milli-Q water to produce 10 mg/mL stock solutions in small glass containers. The bacterial isolates to be tested were streaked onto agar plates to obtain single colonies, and the plates were incubated at 37 °C for 18–24 h. The strains tested were S. aureus ATCC 29213, P. aeruginosa ATCC 27853, E. coli ATCC 25922, A. baumannii ATCC 19606, and K. pneumonia ATCC 13883. Test compounds were prepared in 2-fold dilutions in 50 μL volumes in polypropylene microtiter plates. Bacterial cultures grown to OD600 = 0.1–0.4 were diluted to a desired OD600 of 0.001–0.002 corresponding to 1 × 10^6 CFU/mL. Next, 50 μL bacterial suspension was added to the microtiter plates, giving a final bacterial inoculum of 5 × 10^5 CFU/mL per well. The plates were incubated at 37 °C for 18–24 h. […] The MIC values were visually evaluated, and the MIC was set to the lowest concentration […] based on triplicate measurements. […]
# K. pneumonia ATCC 13883 = format: cell-based, Klebsiella pneumoniae; conditions: K. pneumoniae ATCC 13883; MHB-II, inoculum 5 × 10^5 CFU/mL, 37 °C, 18–24 h, visual read-out, triplicate
# Description: as §1, §2, §3
# human erythrocytes = experiment: Hemolysis of red blood cells; conditions: 1 h; for %H, percent hemolytic activity against red blood cells at 150 μM: human erythrocytes, 0.5% v/v RBC suspension in PBS, peptide 150 μM, 37 °C, absorbance 414 nm, melittin positive control, triplicate
# Description: The hemolysis experiments were performed according to the protocol described in Reference. The peptides were tested at concentrations from 2.35–150 μM, using melittin as positive control and PBS as negative control. One premade tablet of PBS was dissolved in 200 mL Milli-Q water. The solution was kept in the refrigerator for a maximum of two days. The day before the test, the positive control wells of the 96 well polypropylene plates were precoated with 150 μL of melittin 5 μM solution in PBS. The solution was prepared in Protein LoBind Eppendorf tubes. The day of the test, the solution was discarded and the wells were washed three times with 150 μL PBS. A melittin 2.50 μM solution in PBS was prepared in Protein LoBind Eppendorf tubes—500 μL for every plate to be used. The mass of the peptide needed to reach a final concentration of 300 μM (to start testing down from 150 μM) was calculated, since a volume of 500 μL was desirable. […] The peptides were dissolved in PBS and tested in triplicate.
# In a 96 well polypropylene plate, 150 μL of peptide solution was transferred to three wells in Row A. Therefore, each plate could accommodate up to four peptides. A 2-fold serial dilution of the peptides was obtained by transferring 75 μL of the solutions from Row A to the corresponding wells in Row B, mixing a couple of times. From Row B, 75 μL was transferred to Row C and so on until Row G, where 75 μL was discarded after mixing. Volumes of 75 μL melittin (2.50 μM) was transferred to the positive control wells in H1–H6. Preparation of the RBC suspension: 1 mL of whole blood was transferred to a cryotube with 3 mL of PBS, and then it was gently mixed and centrifuged for 8 min at 3000 rpm. The supernatant was discarded, and the process was repeated twice; with 4 mL at 3000 rpm and 4 mL at 4000 rpm, respectively. From the final RBC pellet, 40 μL was transferred to 8 mL of PBS (multiplied by the number of test plates needed). This corresponded to a 0.5% v/v RBC suspension. The suspension was gently mixed and transferred into a CAPPOrigami reservoir. Using a multichannel pipette, 75 μL of the suspension was transferred into each well and mixed in the direction of increasing concentration. The control wells were mixed separately. The plates were covered with BioradMicroseal foil and incubated at 37 °C for 1 h. The plates (maximum two) were centrifuged for 10 min at 4000 rpm, followed by transferring of supernatant (60 μL) from each well into the corresponding wells in a clear ELISA plate. The absorbance (A) of each well was measured at λ = 414 nm using the software program Softmax(R) Pro.
# [1] = Hydrophobicity by analytical RP-HPLC (%B at peak elution); format: physicochemical; conditions: chromatographic, percentage of mobile phase B at the peak elution time
# Text: To investigate the effect of attaching fatty acids to a macrocycle, fatty acid tails of different lengths were used. When the carbon chain was elongated, the hydrophobicity of the peptide was increased gradually. Herein, the hydrophobicity is expressed as the percentage of mobile phase B at the peak elution time on an RP-HPLC system.
# P. aeruginosa ATCC 27853 [2] = conditions: for log reduction of cell count within first hour of treatment: 1 h, MHB-II, 37 °C, shaking, n = 3
# Description: The MIC constitutes a limited measure for antimicrobial activity. It indicates whether or not AMPs in different concentrations are able to prevent visible growth of bacteria.
# Time-kill experiments were performed on balanced exponentially growing cultures of P. aeruginosa ATCC 27853. We used balanced cultures as described in Oddo et al.. Briefly, overnight cultures were prepared in MHB-II broth at 37 °C with shaking. Overnight cultures were back-diluted and grown exponentially for no less than 8–10 generations before experimentation. When experiments were done, exponentially growing cultures were back-diluted to an OD600 = 0.0005 approximately 5 × 10^5 CFU, into fresh MHB-II heated to 37 °C. Samples (250 μL) were taken at time points 0, 1, 3, 5, and 24 h. Samples were spun down at 8000× g for 5 min and washed in 1 mL of NaCl 0.9% before being spun down again and re-suspended in 250 μL NaCl 0.9%. From this, 10-fold dilution series were prepared and 10 μL samples were spot-plated in triplicate onto LB-agar. From the undiluted sample, 100 μL samples were also plated, i.e., giving a detection limit of 10 CFU/mL.
# S. aureus ATCC 29213 = experiment: microbe, parasite or virus in culture; format: cell-based, Staphylococcus aureus; conditions: Staphylococcus aureus, ATCC29213, read-out: Minimum inhibitory concentration, SA
# Description: as §1, with “The use of pure MHB-II was compatible with S3(B) and its fatty acid analogues, and therefore was chosen for the MIC determinations. Noticeably, MHB-I with BSA and acetic acid led to precipitation of lipopeptides in the present work.” left out
# (§4) Cation-adjusted Mueller-Hinton broth (MHB-II) media (BD BBLTM Beef extract powder, BD BactoTMCasamino acids, and DIFCO soluble starch was from Becton, Dickinson and Company©, Franklin Lakes, NJ, USA). […] A VersaMaxTM Tunable Microplate Reader (Molecular Devices LLC, Sunnyvale, CA, USA) was used and the data were evaluated on a Softmax® Pro (Molecular Devices LLC).
# (§5) The MIC experiments were performed according to a protocol adapted from Wiegand et al., with minor modifications. The MICs were determined in triplicate. […] The MIC values were visually evaluated, and the MIC was set to the lowest concentration […] based on triplicate measurements. […]
# A. baumannii ATCC 19606 = format: cell-based, Acinetobacter baumannii; conditions: MHB-II, inoculum 5 × 10^5 CFU/mL, 37 °C, 18–24 h, visual read-out, triplicate
# Description: as §1, with “The use of pure MHB-II was compatible with S3(B) and its fatty acid analogues, and therefore was chosen for the MIC determinations. Noticeably, MHB-I with BSA and acetic acid led to precipitation of lipopeptides in the present work.” left out
# as §4, §5
# P. aeruginosa ATCC 27853 [3] = format: cell-based, Pseudomonas aeruginosa; conditions: MHB-II, inoculum 5 × 10^5 CFU/mL, 37 °C, 18–24 h, visual read-out, triplicate
# Description: as §1, with “The use of pure MHB-II was compatible with S3(B) and its fatty acid analogues, and therefore was chosen for the MIC determinations. Noticeably, MHB-I with BSA and acetic acid led to precipitation of lipopeptides in the present work.” left out
# as §4, §5
Compound,"Minimum inhibitory concentration, EC (E. coli ATCC 25922)","Minimum inhibitory concentration, KP (K. pneumonia ATCC 13883)","%H, percent hemolytic activity against red blood cells at 150 μM (human erythrocytes)",%B at peak of elution in analytical HPLC (hydrophobicity) [1],other results
CCCC(=O)NCC[C@@H]1NC(=O)[C@H](CCN)NC(=O)[C@H](CCCNC(=N)N)NC(=O)[C@H](Cc2ccc3ccccc3c2)NC(=O)[C@H](CCN)NC(=O)[C@H](CC(N)=O)NC(=O)[C@H](CCN)NC(=O)[C@H](Cc2ccc3ccccc3c2)NC(=O)COCCOCCNC1=O [(C4)^5] (cyclo([Dab][2Nal]R[Dab][Dab](Butyryl)[AEEA][2Nal][Dab]N)),64 µg/mL,>64 µg/mL,5%,62%,"%H, percent hemolytic activity against red blood cells at 150 μM (human erythrocytes; listed as (C4)^7): 4%; %B at peak of elution in analytical HPLC (hydrophobicity) ([1]; listed as (C4)^7): 64%"
N=C(N)NCCC[C@@H]1NC(=O)[C@H](Cc2ccc3ccccc3c2)NC(=O)[C@H](CCN)NC(=O)[C@H](CC(N)=O)NC(=O)[C@H](CCN)NC(=O)[C@H](Cc2ccc3ccccc3c2)NC(=O)COCCOCCNC(=O)[C@H](Cc2ccc(-c3ccccc3)cc2)NC(=O)[C@H](CCN)NC1=O [S3(B)] (cyclo([Dab][2Nal]R[Dab][Bip][AEEA][2Nal][Dab]N)),–,–,77%,71%,HD50 (hemolysis) (human erythrocytes; red cells of human): 69 µM; log reduction of cell count within first hour of treatment (P. aeruginosa ATCC 27853 [2]; 1 × MIC (8 μg/mL)): 2.5 log
"CN[C@H](CC(C)C)C(=O)N[C@H]1C(=O)N[C@@H](CC(N)=O)C(=O)N[C@H]2C(=O)N[C@H]3C(=O)N[C@H](C(=O)N[C@H](C(=O)O)c4cc(O)cc(O)c4-c4cc3ccc4O)[C@H](O)c3ccc(c(Cl)c3)Oc3cc2cc(c3O[C@@H]2O[C@H](CO)[C@@H](O)[C@H](O)[C@H]2O[C@H]2C[C@](C)(N)[C@H](O)[C@H](C)O2)Oc2ccc(cc2Cl)[C@H]1O [Vancomycin, reference compound]",–,–,–,–,MIC (S. aureus ATCC 29213): 0.5 µg/mL
CCCCCC(=O)NCC[C@@H]1NC(=O)[C@H](CCN)NC(=O)[C@H](CCCNC(=N)N)NC(=O)[C@H](Cc2ccc3ccccc3c2)NC(=O)[C@H](CCN)NC(=O)[C@H](CC(N)=O)NC(=O)[C@H](CCN)NC(=O)[C@H](Cc2ccc3ccccc3c2)NC(=O)COCCOCCNC1=O [(C6)^5] (cyclo([Dab][2Nal]R[Dab][Dab](Hexanoyl)[AEEA][2Nal][Dab]N)),32 µg/mL,>64 µg/mL,13%,65%,"Minimum inhibitory concentration, AB (A. baumannii ATCC 19606): 64 µg/mL; Minimum inhibitory concentration, PA (P. aeruginosa ATCC 27853 [3]): 16 µg/mL; %H, percent hemolytic activity against red blood cells at 150 μM (human erythrocytes; listed as (C6)^7): 8%; %B at peak of elution in analytical HPLC (hydrophobicity) ([1]; listed as (C6)^7): 69%"
"CC[C@H](C)CCCCC(=O)N[C@@H](CCN)C(=O)N[C@H](C(=O)N[C@@H](CCN)C(=O)N[C@H]1CCNC(=O)[C@H]([C@@H](C)O)NC(=O)[C@H](CCN)NC(=O)[C@H](CCN)NC(=O)[C@H](CC(C)C)NC(=O)[C@@H](CC(C)C)NC(=O)[C@H](CCN)NC1=O)[C@@H](C)O [Colistin, reference compound] (X1-[Dab]T[Dab][Dab][Dab][dL]L[Dab][Dab]T; lactam 4-C (inferred); N-terminus assumed)",0.25 µg/mL,0.5 µg/mL,–,–,"log reduction of cell count within first hour of treatment (P. aeruginosa ATCC 27853 [2]; 5 × MIC ((C8)^5 40 μg/mL; colistin 2.5 μg/mL)): 4.5 log; cell count / growth after 24 h (P. aeruginosa ATCC 27853 [2]; 5 × MIC ((C8)^5 40 μg/mL; colistin 2.5 μg/mL), 24 h, detection limit 10 CFU/mL): No growth"
